# Source: ChEMBL document CHEMBL4428099, “Identification of indole scaffold-based dual inhibitors of NOD1 and NOD2” (Bioorg Med Chem, 2016)
# The source made the active and inactive calls. The rule behind the calls is not given here.
# Key:
# Type in all cases: cell-based
# [1] = target: T1, Nucleotide-binding oligomerization domain-containing protein 1 (Homo sapiens, UniProt Q9Y239); experiment: Inhibition of human NOD1 over-expressed in HEK-Blue cells assessed as inhibition of […] NF-kappaB transcriptional activity preincubated for 1 hr followed by addition of C12-iE-DAP measured after 18 hrs by SEAP reporter gene assay
# T1 sequence (Q9Y239 whole entry): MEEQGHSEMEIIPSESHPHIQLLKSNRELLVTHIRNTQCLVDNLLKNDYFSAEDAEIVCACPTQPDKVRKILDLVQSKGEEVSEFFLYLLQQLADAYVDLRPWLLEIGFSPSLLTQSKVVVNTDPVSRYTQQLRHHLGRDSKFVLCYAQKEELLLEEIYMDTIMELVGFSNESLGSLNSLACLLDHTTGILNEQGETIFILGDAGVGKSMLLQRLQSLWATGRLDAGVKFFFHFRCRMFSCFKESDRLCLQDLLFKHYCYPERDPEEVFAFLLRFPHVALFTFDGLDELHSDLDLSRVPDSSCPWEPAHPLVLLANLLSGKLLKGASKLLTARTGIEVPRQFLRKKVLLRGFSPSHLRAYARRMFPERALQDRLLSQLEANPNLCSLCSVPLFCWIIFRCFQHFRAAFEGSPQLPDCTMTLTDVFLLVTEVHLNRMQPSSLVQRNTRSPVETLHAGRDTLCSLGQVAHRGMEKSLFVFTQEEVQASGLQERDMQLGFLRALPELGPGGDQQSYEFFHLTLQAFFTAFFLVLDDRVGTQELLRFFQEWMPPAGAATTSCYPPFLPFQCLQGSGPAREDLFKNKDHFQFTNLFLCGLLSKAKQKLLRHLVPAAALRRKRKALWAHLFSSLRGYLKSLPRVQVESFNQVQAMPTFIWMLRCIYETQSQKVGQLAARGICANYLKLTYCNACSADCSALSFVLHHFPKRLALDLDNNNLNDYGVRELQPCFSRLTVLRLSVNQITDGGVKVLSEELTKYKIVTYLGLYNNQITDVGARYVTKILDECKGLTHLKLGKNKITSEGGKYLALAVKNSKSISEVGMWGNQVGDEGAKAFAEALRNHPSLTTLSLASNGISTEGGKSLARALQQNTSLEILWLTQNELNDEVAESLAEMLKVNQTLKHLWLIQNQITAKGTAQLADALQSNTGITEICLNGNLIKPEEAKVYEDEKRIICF
# [2] = target: T2, Nucleotide-binding oligomerization domain-containing protein 1 (Homo sapiens) (UniProt Q9Y239); experiment: Inhibition of human NOD1 over-expressed in HEK-Blue cells assessed as inhibition of […] NF-kappaB transcriptional activity measured as residual activity at 25 uM preincubated for 1 hr followed by addition of C12-iE-DAP measured after 18 hrs by SEAP reporter gene assay relative to control
# T2 sequence (whole entry): T1 sequence (Q9Y239 whole entry)
# [3] = Cytotoxicity against HEK-Blue cells assessed as residual metabolic activity up to 25 uM measured after 24 hrs by MTS assay relative to untreated control; conditions: human, read-out: Activity
# [4] = target: Nucleotide-binding oligomerization domain-containing protein 2 (Homo sapiens, UniProt Q9HC29); experiment: Inhibition of human NOD2 over-expressed in HEK-Blue cells assessed as inhibition of […] NF-kappaB transcriptional activity preincubated for 1 hr followed by addition of C12-iE-DAP measured after 18 hrs by SEAP reporter gene assay
# Chain of Nucleotide-binding oligomerization domain-containing protein 2 (Q9HC29 whole entry, the tested form may be a part): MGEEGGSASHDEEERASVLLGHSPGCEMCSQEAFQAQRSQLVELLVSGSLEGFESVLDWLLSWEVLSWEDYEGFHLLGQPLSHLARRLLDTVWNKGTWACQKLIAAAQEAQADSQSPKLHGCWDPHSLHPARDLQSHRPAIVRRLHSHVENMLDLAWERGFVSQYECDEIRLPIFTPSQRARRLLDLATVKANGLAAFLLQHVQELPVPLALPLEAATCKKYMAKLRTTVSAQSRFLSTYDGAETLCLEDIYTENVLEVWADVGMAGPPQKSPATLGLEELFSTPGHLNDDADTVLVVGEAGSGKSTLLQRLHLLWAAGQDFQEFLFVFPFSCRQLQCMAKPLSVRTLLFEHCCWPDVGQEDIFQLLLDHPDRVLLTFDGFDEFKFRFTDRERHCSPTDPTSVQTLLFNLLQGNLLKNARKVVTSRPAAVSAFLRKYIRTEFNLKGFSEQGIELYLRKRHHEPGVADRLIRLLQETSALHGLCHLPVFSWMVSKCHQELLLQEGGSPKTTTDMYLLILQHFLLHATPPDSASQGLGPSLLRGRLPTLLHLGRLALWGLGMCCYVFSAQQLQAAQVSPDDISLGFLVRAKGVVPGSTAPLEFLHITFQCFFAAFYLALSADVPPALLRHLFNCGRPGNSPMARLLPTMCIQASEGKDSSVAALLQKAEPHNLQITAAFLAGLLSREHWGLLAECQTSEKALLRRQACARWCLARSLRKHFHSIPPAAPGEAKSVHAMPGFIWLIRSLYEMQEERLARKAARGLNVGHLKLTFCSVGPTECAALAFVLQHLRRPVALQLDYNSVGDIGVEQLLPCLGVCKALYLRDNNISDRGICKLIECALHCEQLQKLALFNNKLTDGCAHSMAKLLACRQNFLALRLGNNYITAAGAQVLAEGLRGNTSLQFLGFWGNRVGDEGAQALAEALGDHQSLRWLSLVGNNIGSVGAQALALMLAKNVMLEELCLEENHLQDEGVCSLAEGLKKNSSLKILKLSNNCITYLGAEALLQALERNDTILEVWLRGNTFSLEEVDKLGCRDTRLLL
compound,measurement,setting,value
CCOC(=O)c1cc2ccccc2n1Cc1ccc(C)cc1,IC50,[1],7.78 µM
same,Activity,[2],24%
same,viability at 24 h,[3],≥ 80%
same,IC50,[4],9.04 µM
CCOC(=O)c1cc2ccccc2n1S(=O)(=O)c1ccc(F)cc1,IC50,[1],9.22 µM
same,Activity,[2],24%
same,viability at 24 h,[3],≥ 80%
same,IC50,[4],12.6 µM
CCOC(=O)c1cc2ccccc2n1Cc1ccccc1,Activity,[2],58%
same,viability at 24 h,[3],≥ 80%
N=C1Cc2ccccc2N1Cc1ccc(C2CC2)cc1,Activity,[2],inactive
same,viability at 24 h,[3],≥ 80%
CC(C)(C)OC(=O)Nc1cc2ccccc2n1Cc1ccc(Cl)cc1,viability at 24 h,[3],≥ 80%
N=C1Cc2ccccc2N1Cc1ccc(C(F)(F)F)cc1,Activity,[2],inactive
same,viability at 24 h,[3],≥ 80%
CCOC(=O)c1cc2ccccc2n1Cc1ccc(Br)cc1,Activity,[2],45%
same,viability at 24 h,[3],≥ 80%
CCOC(=O)c1cc2ccccc2n1Cc1ccc(C(C)C)cc1,Activity,[2],42%
same,viability at 24 h,[3],≥ 80%
CCOC(=O)c1cc2ccccc2n1S(=O)(=O)c1ccc([N+](=O)[O-])cc1,IC50,[1],15 µM
same,Activity,[2],27%
same,viability at 24 h,[3],≥ 80%
same,IC50,[4],16.9 µM
Cc1ccc(S(=O)(=O)n2c(N)nc3ccccc32)cc1,Activity,[2],9%
same,viability at 24 h,[3],≥ 80%
same,IC50,[4],54.9 µM
Cc1ccc(CN2C(=N)Cc3ccccc32)cc1,Activity,[2],inactive
same,viability at 24 h,[3],≥ 80%
N=C1Cc2ccccc2N1Cc1ccc(Br)cc1,Activity,[2],inactive
same,viability at 24 h,[3],≥ 80%
Cc1ccc(S(=O)(=O)n2c(NC(=O)OC(C)(C)C)cc3ccccc32)cc1,viability at 24 h,[3],≥ 80%
Cc1ccc(S(=O)(=O)n2c(C(=O)NN)cc3ccccc32)cc1,Activity,[2],68%
same,viability at 24 h,[3],≥ 80%
Cc1ccc(S(=O)(=O)n2c(C(=O)O)cc3ccccc32)cc1,viability at 24 h,[3],≥ 80%
O=C(O)c1cc2ccccc2n1Cc1ccc(Cl)cc1,viability at 24 h,[3],≥ 80%
N=C1Cc2ccccc2N1Cc1ccc(Cl)cc1,IC50,[1],15.7 µM
same,Activity,[2],44%
same,viability at 24 h,[3],≥ 80%
same,IC50,[4],> 25 µM
CCOC(=O)c1cc2ccccc2n1Cc1ccc(Cl)cc1,Activity,[2],29%
same,viability at 24 h,[3],≥ 80%
CCOC(=O)c1cc2ccccc2n1Cc1ccc(C2CC2)cc1,Activity,[2],39%
same,viability at 24 h,[3],≥ 80%
CCOC(=O)c1cc2ccccc2n1S(=O)(=O)c1ccc(C)cc1,IC50,[1],5.74 µM
same,Activity,[2],24%
same,viability at 24 h,[3],≥ 80%
same,IC50,[4],6.45 µM
CCOC(=O)c1cc2ccccc2n1C(=O)c1ccc(C)cc1,IC50,[1],16 µM
same,viability at 24 h,[3],≥ 80%
same,IC50,[4],24.6 µM
CCOC(=O)c1cc2ccccc2n1Cc1ccc(C(F)(F)F)cc1,Activity,[2],46%
same,viability at 24 h,[3],≥ 80%
CCOC(=O)c1cc2ccccc2n1Cc1ccc(F)cc1,Activity,[2],53%
same,viability at 24 h,[3],≥ 80%
CC(C)c1ccc(CN2C(=N)Cc3ccccc32)cc1,Activity,[2],inactive
same,viability at 24 h,[3],≥ 80%
Cc1ccc(S(=O)(=O)N2C(=N)Cc3ccccc32)cc1,viability at 24 h,[3],≥ 80%
CCOC(=O)c1cc2ccccc2n1S(=O)(=O)c1ccc(OC)cc1,Activity,[2],36%
same,viability at 24 h,[3],≥ 80%
Cc1ccc(S(=O)(=O)n2c(C(N)=O)cc3ccccc32)cc1,Activity,[2],76%
same,viability at 24 h,[3],≥ 80%
N=C1Cc2ccccc2N1Cc1ccccc1,Activity,[2],72%
same,viability at 24 h,[3],≥ 80%
CCOC(=O)c1cc2ccccc2n1S(=O)(=O)c1ccc(C(F)(F)F)cc1,Activity,[2],37%
same,viability at 24 h,[3],≥ 80%
CCOC(=O)c1cc2ccccc2n1S(=O)(=O)c1ccc(Cl)cc1,IC50,[1],19.8 µM
same,Activity,[2],30%
same,viability at 24 h,[3],≥ 80%
same,IC50,[4],23.4 µM
